Source: patent US10053434B2, “Histone deacetylase inhibitors and compositions and methods of use thereof” (CHDI Foundation, Inc., priority 2015, dated 2018)
pIC50: −log10 of the molar value. Structures can show the parent of a compound that is named as a salt.

How the values were obtained:
[1] = target: human catalytic domain HDAC4 protein (amino acids 648-1032) (Homo sapiens (Human), UniProt P56524); experiment: HDAC4 catalytic domain enzymatic activity, fluorogenic substrate Boc-Lys(TFA)-AMC; conditions: read-out: HDAC4 Biochemical IC50
Chain of human catalytic domain HDAC4 protein (amino acids 648-1032) (P56524 648-1032): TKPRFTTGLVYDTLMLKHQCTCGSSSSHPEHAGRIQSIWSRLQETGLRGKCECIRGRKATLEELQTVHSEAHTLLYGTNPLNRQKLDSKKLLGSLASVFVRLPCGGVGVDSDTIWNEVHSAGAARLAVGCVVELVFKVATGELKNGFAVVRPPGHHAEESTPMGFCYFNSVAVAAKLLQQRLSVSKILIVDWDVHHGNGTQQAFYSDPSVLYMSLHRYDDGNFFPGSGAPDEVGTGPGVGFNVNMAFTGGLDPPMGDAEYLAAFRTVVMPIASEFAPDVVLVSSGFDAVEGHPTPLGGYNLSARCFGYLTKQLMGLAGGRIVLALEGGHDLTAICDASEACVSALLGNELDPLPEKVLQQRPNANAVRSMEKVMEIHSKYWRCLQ
From the text: Example 25: Analysis of Inhibition of HDAC4 with Class IIa Histone Deacetylase (HDAC) Inhibitors
The potency of Class IIa Histone Deacetylase (HDAC) inhibitors was quantified by measuring the Histone Deacetylase 4 (HDAC4) catalytic domain enzymatic activity using the fluorogenic substrate, Boc-Lys(TFA)-AMC. The substrate was deacetylated to Boc-Lys-AMC by HDAC4. […] The fluorescence of the sample was directly related to the histone deacetylase activity in the sample.
(§1) Serially Dilute HDAC Inhibitor Compounds.
(§2) Serial dilutions of the HDAC inhibitors and control reference compound (1-(5-(3-((4-(1,3,4-oxadiazol-2-yl)phenoxy)methyl)-1,2,4-oxadiazol-5-yl)thiophen-2-yl)-2,2,2-trifluoroethanone) were made by first resuspending the lyophilized compound to a final concentration of 10 mM in 100% dimethyl sulfoxide (DMSO). Stocks of 60 μL aliquots of the 10 mM compound in DMSO were prepared and stored at −20° C. From one stock aliquot of each tested compound and the reference compound, a 16-point serial dilution was prepared according to Table 1 using a 125 μL 16-channel Matrix multi-channel pipette (Matrix Technologies Ltd).
2 μL (200×) of each diluted solution and each control (full activity: 100% DMSO alone or full inhibition 1 mM) was stamped into V-bottomed polypropylene 384-well compound plates using either the Bravo (384-well head from Agilent) or 12.5 μL 16-channel Matrix multi-channel pipette (Matrix Technologies Ltd). Each well with the 200× compound solution was diluted 1:20 by the addition of 38 μL assay buffer+DMSO (10.5% DMSO, 45 mM Tris-HCl, 123 mM NaCl, 2.4 mM KCl, and 0.9 mM MgCl2 at pH 8.0 and equilibrated to r.t.).
Prepare HDAC4 Catalytic Domain Enzyme (0.2 μg/mL).
The HDAC4 catalytic domain enzyme was human catalytic domain HDAC4 protein (amino acids 648-1032) with a C-terminal 6× histidine tag, produced by BioFocus. A working solution of enzyme was prepared from a […] stock aliquot of HDAC4 catalytic domain (thawed on ice) diluted to 0.2 μg/mL with assay buffer (50 mM Tris-HCl, 137 mM NaCl, 2.7 mM KCl, and 1 mM MgCl2 at pH 8 and equilibrated to r.t.) just prior to the addition of the enzyme to the assay.
Prepare 5× (50 μM) Boc-Lys(TFA)-AMC Substrate.
5× (50 μM) substrate was prepared just prior to the addition to the assay. A 1 mM substrate stock was made by diluting a 100 mM Boc-Lys(TFA)-AMC in DMSO solution 1:100 by adding it drop-wise to assay buffer (equilibrated to r.t.) while vortexing at slow speed to prevent precipitation. The 5× substrate was prepared by diluting the 1 mM substrate solution 1:20 by adding it drop-wise to assay buffer (equilibrated to r.t.) while vortexing at slow speed to prevent precipitation.
Prepare 3× (30 μM) Developer/Stop Solution.
3× (30 μM) Developer/Stop Solution was prepared just prior to addition to the plate by diluting a stock solution of 10 mM reference compound 1:333 in 25 mg/mL trypsin (PAA Laboratories Ltd.) equilibrated to r.t.
5 μL of each solution of 1:20 diluted compound from above was transferred to a clear bottomed, black, 384-well assay plate using the Bravo or the Janus (384-well MDT head from Perkin Elmer). Using a 16-channel Matrix multi-channel pipette, 35 μL of the working solution of HDAC4 catalytic domain enzyme (0.2 μg/mL in assay buffer) was transferred to the assay plate. The assay was then started by adding 10 μL of 5× (50 μM) substrate to the assay plates using either the Bravo, Janus or 16-channel Matrix multi-channel pipette. The assay plate was then shaken for two minutes on an orbital shaker at 900 rpm (rotations per minute). Next the plate was incubated for 15 minutes at 37° C. The reaction was stopped by adding 25 μL of 3× (30 μM) developer/stop solution to the assay plates using either the Bravo, Janus or a 16-channel Matrix multi-channel pipette. Assay plates were then shaken for 5 minutes on an orbital shaker at 1200 rpm. Next, the assay plates were incubated at 37° C. for 1 hour in a tissue culture incubator. […]

[2] = system: Cellular Class IIa HDAC activity; experiment: Inhibition of cellular Class IIa HDAC activity; Cell (Lys-TFA) substrate, Jurkat E6-1 cells; type: cell-based; conditions: Boc-Lys(TFA)-AMC substrate
From the text: Example 29: Analysis of Inhibition of Cellular Class IIa HDAC Activity with Class IIa Histone Deacetylase (HDAC) Inhibitors; Cell (Lys-TFA) Substrate
(§3) The potency of Class IIa Histone Deacetylase (HDAC) inhibitors was quantified by measuring the cellular histone deacetylase enzymatic activity using the fluorogenic substrate, Boc-Lys(TFA)-AMC. After penetration in Jurkat E6-1 cells, the substrate was deacetylated to Boc-Lys-AMC. After cell lysis and cleavage by trypsin, the fluorophore AMC was released from the deacetylated substrate only. The fluorescence of the sample was directly related to the histone deacetylase activity in the sample.
Jurkat E6.1 Cell Culture and Plating.
(§4) Jurkat E6.1 cells were cultured according to standard cell culture protocols in Jurkat E6.1 Growth Media (RPMI without phenol red, 10% FBS, 10 mM HEPES, and 1 mM Sodium Pyruvate). Jurkat E6.1 cells were counted using a Coulter Counter and resuspended in Jurkat E6.1 growth media at a concentration of 75,000 cells/35 μL. 35 μL or 75,000 cells was seeded into Greiner microtitre assay plates. The plates were then incubated at 37° C. and 5% CO2 while other assay components were being prepared.
as §1
as §2, with “DMSO.” for “dimethyl sulfoxide (DMSO).”, “70” for “60”, “pipette.” for “pipette (Matrix Technologies Ltd).”
(§5) 2 μL (200×) of each diluted solution and each control (full activity: 100% DMSO alone or full inhibition 1 mM) was stamped into V-bottom polypropylene 384-well compound plates using either the Bravo, Janus, or 12.5 μL 16-channel Matrix multi-channel pipette. Each well with the 200× compound solution was diluted 1:20 by the addition of 38 μL Jurkat assay buffer+DMSO (9.5% DMSO, RPMI without phenol red, 0.09% FBS, 9 mM Hepes, and 0.9 mM Sodium Pyruvate equilibrated to r.t.)
Prepare 5× (500 μM) Boc-Lys(TFA)-AMC Substrate.
(§6) 5× (500 μM) substrate was prepared just prior to the addition to the assay. The 5× substrate was prepared by diluting a 100 mM Boc-Lys(TFA)-AMC in DMSO solution 1:200 by adding it drop-wise to Jurkat assay medium (RPMI without phenol red, 0.1% FBS, 10 mM Hepes, and 1 mM Sodium Pyruvate equilibrated to 37° C.) while vortexing at slow speed to prevent precipitation.
(§7) 10 mL of 3× lysis buffer was prepared with 8.8 mL of 3× stock lysis buffer (50 mM Tris-HCl, pH 8.0, 137 mM NaCl, 2.7 mM KCl, 1 mM MgCl2, 1% Nonidet P40 Substitute equilibrated to r.t.) and 1.2 mL of 3 mg/mL Trypsin equilibrated to r.t.
(§8) 5 μL of each solution of 1:20 diluted compound from above was transferred to the Greiner microtitre assay plates with 75,000 cells/well using the Bravo. Cells were then incubated for 2 hours at 37° C. and 5% CO2. The assay was then started by adding 10 μL of 5× (500 μM) substrate to the assay plate using either the Bravo or 16-channel Matrix multi-channel pipette. The cells were then incubated for 3 hours at 37° C. and 5% CO2. Next, 25 μL of 3× lysis buffer was added to each well using either the 125 μL 16 channel pipette or the Bravo. The assay plate was then incubated overnight (15-16 hours) at 37° C. and 5% CO2. The following day, the plates were shaken on an orbital shaker for 1 minute at 900 rpm. Finally the top read fluorescence (Excitation: 355 nm, Emission: 460 nm) was measured using PerkinElmer EnVision.

[3] = system: Cellular Class I HDAC activity; experiment: Inhibition of cellular Class I HDAC activity; Cell (Lys-Ac) substrate, Jurkat E6-1 cells; type: cell-based; conditions: Boc-Lys(Ac)-AMC substrate
From the text: as §3, §4
as §2, with “DMSO.” for “dimethyl sulfoxide (DMSO).”, “70” for “60”, “pipette.” for “pipette (Matrix Technologies Ltd).”
as §5, §6, §7, §8
Example 30: Analysis of Inhibition of Cellular Class I HDAC Activity with Class IIa Histone Deacetylase (HDAC) Inhibitors; Cell (Lys-Ac) Substrate
The Class I HDAC activity of Class IIa Histone Deacetylase (HDAC) inhibitors was quantified by measuring the cellular histone deacetylase enzymatic activity using the fluorogenic substrate, Boc-Lys(Ac)-AMC. This was performed according to the procedure in Example 29, using Boc-Lys(Ac)-AMC substrate in place of Boc-Lys(TFA)-AMC.

Row | SMILES | pIC50 [1] | pIC50 [2] | pIC50 [3]
1 | Cc1cc(C(=O)N[C@H](C)CN2CCC[C@@H]2C)ccc1-c1noc(C(F)(F)F)n1 [Example 1, (2S)-2-Methyl-1-((R)-2-(3-methyl-4-(5-(trifluoromethyl)-1,2,4-oxadiazol-3-yl)benzamido)propyl)pyrrolidin-1-ium formate] | 7.00 | 5.80 | < 4.30
2 | O=C(NCCN1CC2CCC(C2)C1)c1ccc(-c2noc(C(F)(F)F)n2)cc1 [Example 2, N-(2-(3-Azabicyclo[3.2.1]octan-3-yl)ethyl)-4-(5-(trifluoromethyl)-1,2,4-oxadiazol-3-yl)benzamide] | 6.85 | 6.48 | 5.31
3 | C[C@H](CN1Cc2ccccc2C1)NC(=O)c1ccc(-c2noc(C(F)(F)F)n2)cc1 [Example 3, (R)—N-(1-(Isoindolin-2-yl)propan-2-yl)-4-(5-(trifluoromethyl)-1,2,4-oxadiazol-3-yl)benzamide] | 7.41 | 6.85 | 5.31
4 | O=C(N[C@H](CN1CCCC1)C1CC1)c1ccc(-c2noc(C(F)(F)F)n2)cc1 [Example 5, (S)—N-(1-Cyclopropyl-2-(pyrrolidin-1-yl)ethyl)-4-(5-(trifluoromethyl)-1,2,4-oxadiazol-3-yl)benzamide] | 7.32 | 6.15 | 4.59
5 | C[C@H](CN1CCc2ccccc2C1)NC(=O)c1ccc(-c2noc(C(F)(F)F)n2)cc1 [Example 7, (R)—N-(1-(3,4-Dihydroisoquinolin-2(1H)-yl)propan-2-yl)-4-(5-(trifluoromethyl)-1,2,4-oxadiazol-3-yl)benzamide] | 8.05 | 7.74 | 5.62
6 | C[C@H](CN1CC(c2ccccc2)C1)NC(=O)c1ccc(-c2noc(C(F)(F)F)n2)cc1 [Example 8, (R)—N-(1-(3-Phenylazetidin-1-yl)propan-2-yl)-4-(5-(trifluoromethyl)-1,2,4-oxadiazol-3-yl)benzamide] | 7.85 | 7.41 | 6.15

More lines, now with the values ahead:

Row | pIC50 [1] | pIC50 [2] | pIC50 [3] | SMILES
7 | 7.68 | 7.24 | 5.43 | C[C@H](CN1CCCC(OC(F)F)C1)NC(=O)c1ccc(-c2noc(C(F)(F)F)n2)cc1 (single isomer, unassigned) [Example 9]
8 | 8.52 | 8.15 | 5.82 | C[C@H](CN1CCCC(OC(F)F)C1)NC(=O)c1ccc(-c2noc(C(F)(F)F)n2)cc1 (single isomer, unassigned) [Example 10]
9 | 7.66 | 6.82 | 5.11 | C[C@H](CN1CC2CCCC21)NC(=O)c1ccc(-c2noc(C(F)(F)F)n2)cc1 (single isomer, unassigned) [Example 20]
10 | 8.40 | 7.80 | 5.51 | C[C@H](CN1CC2CCCC21)NC(=O)c1ccc(-c2noc(C(F)(F)F)n2)cc1 (single isomer, unassigned) [Example 21]
11 | 8.10 | 7.29 | 5.16 | C[C@H](CN1CC2CC2C1)NC(=O)c1ccc(-c2noc(C(F)(F)F)n2)cc1 (stereo partly drawn) [Example 4, N-((2R)-1-(3-Azabicyclo[3.1.0]hexan-3-yl)propan-2-yl)-4-(5-(trifluoromethyl)-1,2,4-oxadiazol-3-yl)benzamide]
12 | 7.11 | 6.12 | < 4.30 | O=C(N[C@@H](CN1CCCC1)C1CC1)c1ccc(-c2noc(C(F)(F)F)n2)cc1 [Example 6, (R)—N-(1-Cyclopropyl-2-(pyrrolidin-1-yl)ethyl)-4-(5-(trifluoromethyl)-1,2,4-oxadiazol-3-yl)benzamide]
13 | 8.52 | 8.05 | 6.01 | C[C@H](CN1CCCC2(CC2)C1)NC(=O)c1ccc(-c2noc(C(F)(F)F)n2)cc1 [Example 11, (R)—N-(1-(5-Azaspiro[2.5]octan-5-yl)propan-2-yl)-4-(5-(trifluoromethyl)-1,2,4-oxadiazol-3-yl)benzamide]
14 | 7.52 | 7.24 | 5.40 | C[C@H](CN1CCC2(CC1)CC2)NC(=O)c1ccc(-c2noc(C(F)(F)F)n2)cc1 [Example 12, (R)—N-(1-(6-Azaspiro[2.5]octan-6-yl)propan-2-yl)-4-(5-(trifluoromethyl)-1,2,4-oxadiazol-3-yl)benzamide]
